The values below are quoted from earlier work in publication PMC10482267, “Safety, tolerability, pharmacokinetics, and pharmacodynamics of single and multiple doses of aficamten in healthy Chinese participants: a randomized, double-blind, placebo-controlled, phase 1 study” (Frontiers in Pharmacology, 2023).

On the set-up of this data set: method as in Heitner et al., 2019; Olivotto et al., 2020. The conditions noted are these: humans; ref Heitner et al., 2019; Olivotto et al., 2020; cited from earlier work.

For the compound `CC(C)n1c(=O)cc(N[C@@H](C)c2ccccc2)[nH]c1=O` [Mavacamten, mavacamten], the time to steady-state result is “approximately 6 weeks”.
